Results as given in US4100299A, “Pharmaceutically active 2-omega-aminoalkoxydiphenylmethylmethanes” (Mitsubishi Chemical Industries Limited, priority 1977, dated 1978).
Structures can show the parent of a compound that is named as a salt.

Columns and labels:
[1] = tested on: reserpine induced hypothermia; experiment: Antireserpine activity: antagonism of reserpine induced hypothermia (antidepressant activity); type: in vivo; conditions: for Antireserpine Activity in Mice, Relative Potency: relative to Amitriptyline = 1, i.p., reserpine 5 mg/kg i.p.
in vivo = conditions: mouse, ip
[2] = tested on: electroshock induced tonic extensor; experiment: Anticonvulsant activity: antagonism of electroshock induced tonic extensor; type: in vivo; conditions: Mus musculus, ip, mice, dose which prevents 50% of each response
Description: (§1) The compounds were administered intraperitoneally and the activities of the compounds were compared with those of Amitriptyline.

traction test = experiment: Muscle relaxant action: traction test (CNS depressant activity, neurological deficit); type: in vivo; conditions: Mus musculus, ip, mice
Description: as §1

[3] = tested on: spontaneous motor activity; experiment: Spontaneous motor activity depression (ANIMEX apparatus; CNS depressant activity); type: in vivo; conditions: mice
Description: as §1

tremorine induced tremor = experiment: Antitremorine effect (central anticholinergic effect); type: in vivo; conditions: mice
Description: as §1

mice = conditions: i.p.

Structure (SMILES)	Antireserpine Activity in Mice, Relative Potency [1]	LD50 (in vivo)	antireserpine activity (in words) ([1]; mice, i.p., compared with Amitriptyline)	ED50 [2]	ED50 (traction test)	ED50 ([3]; Mus musculus, ip, ANIMEX apparatus)	CNS depressant action (in words) ([3]; i.p., traction test and spontaneous motor activity)	ED50 (tremorine induced tremor; Mus musculus, ip, tremorine induced tremor)	anticholinergic action (in words) (tremorine induced tremor; i.p.)	toxicity (in words) (mice)
CC(c1ccccc1)c1ccccc1OCCCN(C)C (centres unmarked) [2-(3-dimethylaminopropoxy)diphenylmethylmethane]	0.34	155 mg/kg	–	–	–	–	–	–	–	–
CC(c1ccccc1)c1ccccc1OCCCCN(C)C (centres unmarked) [2-(4-dimethylaminobutoxy)diphenylmethylmethane hydrochloride]	0.36	110 mg/kg	–	–	–	–	–	–	–	–
CNCCCCOc1ccccc1C(C)c1ccccc1 (centres unmarked) [2-(4-methylaminobutoxy)diphenylmethylmethane hydrochloride]	0.66	140 mg/kg	antireserpine activity comparable to that of Amitriptyline	25 mg/kg	> 60 mg/kg	32 mg/kg	weak CNS depressant	20 mg/kg	weak CNS depressant and anticholinergic action	low toxicity
